According to patent US20080261812A1, “Pesticidal Mixtures” (BASF SE, priority 2005, published 2008):
Read-outs that look alike come from different tables or passages of the source.

System: southern armyworm (Spodoptera eridania) 3rd-instar larvae
Assay: Laboratory bioassay with southern armyworm larvae on dip-treated lima bean leaves
Format: in vivo
Details: foliar, 120 h, read-out: % Mortality Observed
Text: Serial dilutions of technical grade insecticides were made in 1:1 acetone:water diluent. Lima bean leaves were dipped into treatment solutions and allowed to air-dry. A single treated leaf was placed topside-up onto water-moistened filter paper in plastic Petri dishes, and then seven 3rd-instar southern armyworm (Spodoptera eridania) larvae were placed onto each leaf. Dishes were covered with a plastic lid to contain larvae. Each treatment was replicated 4 times (1 replicate=1 Petri dish). Following treatment application, infested Petri dishes were held in the laboratory under fluorescent lighting at 26° C. Numbers of live and dead larvae were counted in each dish at 5 days after treatment (DAT), and percent mortality was calculated for each treatment.
To determine if the insecticidal mixture was synergistic, Limpel's formula was used:
E=Expected % mortality of the mixture X=% mortality of compound X, as measured independently Y=% mortality of compound Y, as measured independently
Synergism was evident if the % observed mortality for the mixture was greater than the % expected mortality.

Row | Compound | mortality at 0.6 ppm (single insecticide, dose concentration 0.6 ppm, leaf dip, 5 DAT, 3rd-instar larvae) [%] | mortality at 1 ppm (single insecticide, dose concentration 1.0 ppm, leaf dip, 5 DAT, 3rd-instar larvae) [%] | mortality at 0.6 ppm [%]
1 | N#Cc1ccc(CC(=NNC(=O)Nc2ccc(OC(F)(F)F)cc2)c2cccc(C(F)(F)F)c2)cc1 [Metaflumizone, metaflumizone] | 0 | 7 | –
2 | FC(F)(F)c1ccc(OCCCOc2c(Cl)cc(OCC=C(Cl)Cl)cc2Cl)nc1 [Pyridalyl, 2,6-dichloro-4-(3,3-dichloroallyloxy)phenyl 3-[5-(trifluoromethyl)-2-pyridyloxy]propyl ether] | – | – | 10
